Laboratory results reported in ChEMBL document CHEMBL3525899, “Identification of the cytochrome P450 and other enzymes involved in the in vitro oxidative metabolism of a novel antidepressant, Lu AA21004” (Drug Metab Dispos, 2012).

How the values were obtained:
[1] = tested on: Liver microsome; experiment: Drug metabolism in pooled human liver microsomes assessed as formation of 3-(2,4-dimethylphenylthio)-4-(piperazin-1-yl)phenol at 100 uM after 30 to 180 mins by HPLC/MS-MS analysis in presence of NADPH regenerating system with NADP+; assay type: ADME
[2] = tested on: Liver microsome; experiment: Drug metabolism in pooled human liver microsomes assessed as formation of (3-methyl-4-(2-(piperazin-1-yl)phenylthio)phenyl)methanol at 100 uM after 30 to 180 mins by HPLC/MS-MS analysis in presence of NADPH regenerating system with NADP+; assay type: ADME
[3] = tested on: Liver microsome; experiment: Drug metabolism in phenotyped human liver microsomes assessed as formation of 3-methyl-4-(2-(piperazin-1-yl)phenylthio)benzoic acid at 8 to 50 uM after 60 mins by HPLC/MS-MS analysis in presence of NADPH regenerating system with NADP+; assay type: ADME; settings: 1 h
[4] = target: T1, Cytochrome P450 2A6 (Homo sapiens, UniProt P11509); experiment: Activity of human recombinant CYP2A6 expressed in microsomes isolated from human AHH-1 cells assessed as enzyme-mediated 1-(2-(2,4-dimethylphenylsulfinyl)phenyl)piperazine formation at 8 to 50 uM after 120 mins by HPLC/MS-MS analysis in presence of NADPH regenerating system with NADP+; assay type: ADME, cell-free; settings: 2 h
T1 sequence (P11509 whole entry): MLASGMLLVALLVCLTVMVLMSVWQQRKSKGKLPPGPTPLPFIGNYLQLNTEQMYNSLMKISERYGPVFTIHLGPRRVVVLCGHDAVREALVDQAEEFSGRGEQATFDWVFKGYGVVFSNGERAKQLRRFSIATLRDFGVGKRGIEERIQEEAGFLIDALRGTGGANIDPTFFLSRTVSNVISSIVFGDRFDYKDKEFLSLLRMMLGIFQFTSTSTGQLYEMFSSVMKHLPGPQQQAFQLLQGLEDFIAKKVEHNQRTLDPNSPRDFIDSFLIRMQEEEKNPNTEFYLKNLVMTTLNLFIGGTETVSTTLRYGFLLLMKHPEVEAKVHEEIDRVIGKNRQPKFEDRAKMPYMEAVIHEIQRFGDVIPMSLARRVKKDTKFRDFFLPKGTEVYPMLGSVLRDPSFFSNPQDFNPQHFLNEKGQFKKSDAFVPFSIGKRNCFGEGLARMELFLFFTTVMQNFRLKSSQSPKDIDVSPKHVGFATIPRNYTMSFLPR

[5] = target: T2, Cytochrome P450 2B6 (Homo sapiens, UniProt P20813); experiment: (§1) Activity of human recombinant CYP2B6 expressed in microsomes isolated from human AHH-1 cells assessed as enzyme-mediated 4-(2-(2,4-dimethylphenylthio)phenyl)piperazin-1-ol formation at 8 to 50 uM after 120 mins by HPLC/MS-MS analysis in presence of NADPH regenerating system with NADP+; assay type: ADME, cell-free; settings: 2 h
T2 sequence (P20813 whole entry): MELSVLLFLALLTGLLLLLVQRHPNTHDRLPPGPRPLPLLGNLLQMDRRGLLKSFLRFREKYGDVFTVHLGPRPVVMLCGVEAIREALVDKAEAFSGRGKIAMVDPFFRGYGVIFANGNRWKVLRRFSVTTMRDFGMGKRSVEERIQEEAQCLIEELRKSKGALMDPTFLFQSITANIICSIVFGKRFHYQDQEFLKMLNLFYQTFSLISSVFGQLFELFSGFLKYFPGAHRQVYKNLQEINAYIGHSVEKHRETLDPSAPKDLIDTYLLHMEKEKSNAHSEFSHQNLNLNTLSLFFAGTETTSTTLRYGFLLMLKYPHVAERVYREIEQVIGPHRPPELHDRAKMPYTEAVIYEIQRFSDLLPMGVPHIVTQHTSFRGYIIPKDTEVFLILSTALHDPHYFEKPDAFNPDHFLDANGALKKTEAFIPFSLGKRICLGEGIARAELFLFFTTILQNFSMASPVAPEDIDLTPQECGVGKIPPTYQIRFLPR

[6] = target: T1, Cytochrome P450 2A6; experiment: Activity of human recombinant CYP2A6 expressed in microsomes isolated from human AHH-1 cells assessed as enzyme-mediated 3-(2,4-dimethylphenylthio)-4-(piperazin-1-yl)phenol formation at 8 to 50 uM after 120 mins by HPLC/MS-MS analysis in presence of NADPH regenerating system with NADP+; assay type: ADME, cell-free; settings: 2 h
[7] = target: T3, Flavin-containing monooxygenase 3 (Homo sapiens, UniProt P31513); experiment: as §1, with “FMO3” for “CYP2B6”, “baculovirus infected insect BTI-TN-5B1-4” for “human AHH-1”; assay type: ADME; settings: 2 h
T3 sequence (P31513 whole entry): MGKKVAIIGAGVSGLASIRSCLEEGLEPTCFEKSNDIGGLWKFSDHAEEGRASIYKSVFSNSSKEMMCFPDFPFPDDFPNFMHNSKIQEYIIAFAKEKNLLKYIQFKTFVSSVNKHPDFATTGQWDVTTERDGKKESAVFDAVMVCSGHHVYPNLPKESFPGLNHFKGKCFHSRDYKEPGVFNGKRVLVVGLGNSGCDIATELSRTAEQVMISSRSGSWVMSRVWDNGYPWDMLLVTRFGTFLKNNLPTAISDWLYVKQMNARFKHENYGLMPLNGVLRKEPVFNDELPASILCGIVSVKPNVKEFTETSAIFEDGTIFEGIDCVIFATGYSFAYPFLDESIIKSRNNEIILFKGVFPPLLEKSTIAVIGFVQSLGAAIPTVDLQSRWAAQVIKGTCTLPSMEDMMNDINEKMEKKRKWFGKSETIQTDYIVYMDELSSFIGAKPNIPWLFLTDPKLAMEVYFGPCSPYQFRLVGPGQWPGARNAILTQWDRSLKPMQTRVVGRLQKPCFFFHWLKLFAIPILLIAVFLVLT

[8] = tested on: Liver microsome; experiment: Drug metabolism in pooled human liver microsomes assessed as formation of 4-(2-(2,4-dimethylphenylthio)phenyl)piperazin-1-ol after 30 mins by Michaelis-Menten plot analysis in presence of NADPH regenerating system with NADP+; assay type: ADME; settings: 0.5 h, read-out: Km(app)
[9] = target: Cytochrome P450 2D6 (Homo sapiens, UniProt P10635); experiment: Activity of human recombinant CYP2D6 expressed in microsomes isolated from human AHH-1 cells assessed as enzyme-mediated 3-(2,4-dimethylphenylthio)-4-(piperazin-1-yl)phenol formation at 8 to 50 uM after 120 mins by HPLC/MS-MS analysis in presence of NADPH regenerating system with NADP+; assay type: ADME, cell-free; settings: 2 h
Sequence of Cytochrome P450 2D6 (P10635 whole entry): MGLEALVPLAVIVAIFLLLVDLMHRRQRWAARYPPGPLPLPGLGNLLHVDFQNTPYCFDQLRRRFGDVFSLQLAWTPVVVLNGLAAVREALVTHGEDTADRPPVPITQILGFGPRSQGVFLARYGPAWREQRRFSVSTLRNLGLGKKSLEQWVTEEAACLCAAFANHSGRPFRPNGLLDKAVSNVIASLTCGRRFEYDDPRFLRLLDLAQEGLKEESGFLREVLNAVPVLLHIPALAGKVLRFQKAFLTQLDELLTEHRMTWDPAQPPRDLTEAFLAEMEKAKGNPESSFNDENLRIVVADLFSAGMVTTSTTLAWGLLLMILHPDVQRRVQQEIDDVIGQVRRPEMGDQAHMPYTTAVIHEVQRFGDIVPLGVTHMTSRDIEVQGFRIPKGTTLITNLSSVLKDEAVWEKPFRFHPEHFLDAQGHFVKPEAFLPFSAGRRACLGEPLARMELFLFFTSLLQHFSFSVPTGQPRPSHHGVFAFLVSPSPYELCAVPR

[10] = tested on: Liver microsome; experiment: Drug metabolism in pooled human liver microsomes assessed as formation of (3-methyl-4-(2-(piperazin-1-yl)phenylthio)phenyl)methanol per mg of protein after 30 mins by Michaelis-Menten plot analysis in presence of NADPH regenerating system with NADP+; assay type: ADME; settings: 0.5 h

Drug metabolism [1]: metabolite_detected
Drug metabolism [2]: metabolite_detected
Drug metabolism [3]: metabolite_detected
Drug metabolism [4]: metabolite_detected
Drug metabolism [5]: metabolite_detected
Drug metabolism [6]: metabolite_not_detected
Drug metabolism [7]: metabolite_not_detected
Km [8]: 300 µM
Drug metabolism [9]: metabolite_detected
Vmax(app) [10]: 262 pmol/min
SMILES: Br.Cc1ccc(Sc2ccccc2N2CCNCC2)c(C)c1 [VORTIOXETINE HYDROBROMIDE]
